“Also recorded” adds a separate entry of the source. Like-named read-outs stand apart in the source and are kept apart here.

One experiment has as its system carageenan-induced edema. In words: Carrageenan-induced rat paw edema test (anti-inflammatory activity). In kind it is in vivo, Sprague-Dawley rats. As to conditions: for inhibition in vivo at 50 mg/kg: po, 3 h, carrageenan-induced rat paw edema, defined in Example 397, read-out: % Protection. In outline: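 Edema was raised by sub-plantar injection of 1% carrageenan into the right hind paw, 1 h after dosing 18 h-fasted male/female Sprague-Dawley rats (150-250 g) with 50 mg/kg p.o. in 0.1% CMC. Swelling was measured by displacement 3 h later and expressed as % protection against saline control.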

The next experiment relates to AP-1. The experiment is described as follows: AP-1 inhibitor screen: basal AP-1-dependent luciferase expression in HEK/AP-1 cell line. As to conditions: for inhibition at 1 µM: AP1, determined as described in Example 398. It is filed as cell-based. In outline: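 Compound effects on unstimulated reporter signal were tested: 1.0 μM compound (0.3% DMSO) for 48 hr on HEK cells bearing an AP-1 (TGACTAA ×3)-luciferase construct, seeded 24 hr earlier. Triplicate luminescence means were normalized to DMSO-only wells; dose-response experiments were repeated 2–4 times.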

The subject of a further experiment is NF-κB. The experiment is described as follows: NF-κB inhibitor screen: basal NF-κB-dependent luciferase expression in HEK/NF-κB cell line. In kind it is cell-based. As to conditions: for inhibition at 1 µM: determined as described in Example 398, read-out: NFkB inhibition @ 1 uM; for inhibition of NF-κB (summary statement): summary in the disclosure. In outline:
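Basal NF-κB-driven luciferase (six-copy element, stable HEK293 line) was read with Brite-Glo. Compound was added in 0.3% DMSO 24 h post-plating, initially at 1.0 μM and then across 10–3300 nM in six steps, in triplicate wells. Signals were expressed relative to DMSO or to the lowest concentration tested.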

For `CNc1nc(C)c(-c2nc3ccccc3c(=O)n2-c2ccc(Cl)cc2)s1` [Example 244, 2-(4-Methyl-2-methylamino-thiazol-5-yl)-3-(4-chloro-phenyl)-3H-quinazolin-4-one], the inhibition in vivo at 50 mg/kg with carageenan-induced edema (Rattus norvegicus) stood at 71%. Further, the inhibition (usually how much of the control response was suppressed) at 1 µM was determined as 82% in the experiment on AP-1 and 93% in the experiment on NF-κB.

Take `COc1ccc(-n2c(-c3sc(Nc4ccc(Cl)cc4)nc3-c3ccccc3)nc3ccccc3c2=O)cc1` [Example 225, 2-[2-(4-Chloro-phenylamino)-4-phenyl-thiazol-5-yl]-3-(4-methoxyphenyl)-3H-quinazolin-4-one]: in the experiment on carageenan-induced edema, the inhibition in vivo at 50 mg/kg was determined as 80%. For the same molecule, the inhibition at 1 µM in the experiment on AP-1 was determined as 58%; in the experiment with NF-κB, 47%. Further, the “inhibition of NF-κB (summary statement)” value in the experiment with NF-κB is recorded as “capable of inhibiting”.

In the case of “Bis-[2-(4-Chloro-phenylamino)-4-benzayl-thiazole-5-yl]-methanone [Example 134]”, the “% Protection P” value in the experiment with carageenan-induced edema (rat paw edema, 50 mg/kg, reading 3 hours after carrageenan, [(Control−Test)/Control]×100%) stood at 75.69%. Also, in the experiment on AP-1 (10 nM-3300 nM (FIG. 14)), the “basal AP-1-dependent luciferase, six-point dose response” value is “substantial activity at submicromolar concentrations”. Moreover, the “basal NF-κB-dependent luciferase, six-point dose response” value in the experiment with NF-κB (10 nM-3300 nM (FIG. 12), listed as Compound 35) was “substantial activity at submicromolar concentrations; also recorded: robust inhibition”. Besides, the “inhibition of basal NF-κB-dependent luciferase expression” value with NF-κB (3.3 μM (FIG. 12)) is given as “about 50%”. The “inhibition of NF-κB (summary statement)” value in the experiment on NF-κB is “capable of inhibiting”.

The record behind these values is patent US8829014B2, “Thiazole and thiophene analogues, and their use in treating autoimmune diseases and cancers” (Board of Supervisors of Louisiana State University and …, priority 2006, dated 2014).
